Data reported in patent US20220242958A1, “BISPECIFIC NANOBODIES” (Ablynx N.V., priority 2013, published 2022).

Experiments:
hEGFR ECD = target: T1, hEGFR ECD (Homo sapiens, UniProt P00533); experiment: SPR (Biacore T100) on hEGFR extracellular domain; format: binding
T1 construct: directly immobilized hEGFR extracellular domain (Sino Biological, #10001-H08H); purchased Sino Biological 10001-H08H

[1] = test system: X4 HIV-1 clone NL4.3 (U87 cells); experiment: HIV-1 infection assay, U87 cells + NL4.3; format: cell-based; details: Human immunodeficiency virus 1, U-87 MG; n = 3; read-out: IC50 (nM) U87 + NL 4.3 (X4)
[2] = test system: X4 HIV-1 clone NL4.3 (PBMCs); experiment: microbe, parasite or virus in culture; format: cell-based; details: Human immunodeficiency virus 1, PBMC, read-out: IC50 (nM) PBMC + NL 4.3(X4)
[3] = test system: HIV-1 NL4.3 AMD-3100 res. variant; format: cell-based; details: versus wild-type NL4.3
[4] = test system: dual-tropic (R5/X4) HIV-1 HE strain; experiment: HIV infection assay, MT-4 cells + HIV-1 HE; format: cell-based; details: Human immunodeficiency virus 1, MT4
Text: (§1) Viral strains used were the X4 HIV-1 clone NL4.3, R5 HIV-1 strain BaL, or the R5/X4 HIV-1 HE strain. Infection was done in MT-4 cells or phytohemagglutin-stimulated PBMCs from different healthy donors. The CXCR4-using (X4) HIV-1 clone NL4.3 was obtained from the National Institutes of Health NIAID AIDS Reagent program (Bethesda, Md.), the CCR5-using (R5) HIV-1 strain BaL was obtained from the Medical Research Council AIDS reagent project (Herts, UK). The dual-tropic (R5/X4) HIV-1 HE strain was initially isolated from a patient at the University Hospital in Leuven. The MT-4 cells were seeded out in 96-well plate and the U87 cells in 24-well plates. Nanobodies were added at different concentrations together with HIV-1 and the plates were maintained at 37° C. in 10% CO2. Cytopathic effect induced by the virus was monitored by daily microscopic evaluation of the virus-infected cell cultures. […] The absorbance was measured spectrophotometrically at 490 nm with a 96-well plate reader (Molecular Devices, Sunnyvale, Calif.) and compared with four cell control replicates (cells without virus and drugs) and four virus control wells (virus-infected cells without drugs). The IC50, i.e., the drug concentration that inhibits HIV-induced cell death by 50%, was calculated for each polypeptide from the dose-response curve. […]

HIV-2 ROD = experiment: HIV infection assay, MT-4 cells + HIV-2 ROD; format: cell-based; details: Human immunodeficiency virus 2, MT4
Text: as §1

Compound | hEGFR ECD ka (hEGFR ECD) [M⁻¹ s⁻¹] | hEGFR ECD kd (hEGFR ECD) [s⁻¹] | IC50 [1] [nM] | IC50 [2] [nM] | loss in potency towards AMD3100 resistant virus [3] [fold] | IC50 [4] [nM] | IC50 (HIV-2 ROD) [nM]
EGFR#11: EGFR Nanobody variant 7C12 (A1E, Q108L) | 220000 | 0.037 | – | – | – | – | –
EGFR#32: EGFR Nanobody variant 7C12(A1E, E100fS, Q108L) | 270000 | 0.23 | – | – | – | – | –
c1cc(CN2CCCNCCNCCCNCC2)ccc1CN1CCCNCCNCCCNCC1 [AMD3100, reference compound] | – | – | 10 | 1.91 | ~100 | 3.9 | 21.1
